SMILES strings stand for the structures.

For data set [1], the target named is T1, Phosphatidylinositol 4,5-bisphosphate 3-kinase catalytic subunit delta isoform (Homo sapiens) (UniProt O00329).
T1 sequence (whole entry): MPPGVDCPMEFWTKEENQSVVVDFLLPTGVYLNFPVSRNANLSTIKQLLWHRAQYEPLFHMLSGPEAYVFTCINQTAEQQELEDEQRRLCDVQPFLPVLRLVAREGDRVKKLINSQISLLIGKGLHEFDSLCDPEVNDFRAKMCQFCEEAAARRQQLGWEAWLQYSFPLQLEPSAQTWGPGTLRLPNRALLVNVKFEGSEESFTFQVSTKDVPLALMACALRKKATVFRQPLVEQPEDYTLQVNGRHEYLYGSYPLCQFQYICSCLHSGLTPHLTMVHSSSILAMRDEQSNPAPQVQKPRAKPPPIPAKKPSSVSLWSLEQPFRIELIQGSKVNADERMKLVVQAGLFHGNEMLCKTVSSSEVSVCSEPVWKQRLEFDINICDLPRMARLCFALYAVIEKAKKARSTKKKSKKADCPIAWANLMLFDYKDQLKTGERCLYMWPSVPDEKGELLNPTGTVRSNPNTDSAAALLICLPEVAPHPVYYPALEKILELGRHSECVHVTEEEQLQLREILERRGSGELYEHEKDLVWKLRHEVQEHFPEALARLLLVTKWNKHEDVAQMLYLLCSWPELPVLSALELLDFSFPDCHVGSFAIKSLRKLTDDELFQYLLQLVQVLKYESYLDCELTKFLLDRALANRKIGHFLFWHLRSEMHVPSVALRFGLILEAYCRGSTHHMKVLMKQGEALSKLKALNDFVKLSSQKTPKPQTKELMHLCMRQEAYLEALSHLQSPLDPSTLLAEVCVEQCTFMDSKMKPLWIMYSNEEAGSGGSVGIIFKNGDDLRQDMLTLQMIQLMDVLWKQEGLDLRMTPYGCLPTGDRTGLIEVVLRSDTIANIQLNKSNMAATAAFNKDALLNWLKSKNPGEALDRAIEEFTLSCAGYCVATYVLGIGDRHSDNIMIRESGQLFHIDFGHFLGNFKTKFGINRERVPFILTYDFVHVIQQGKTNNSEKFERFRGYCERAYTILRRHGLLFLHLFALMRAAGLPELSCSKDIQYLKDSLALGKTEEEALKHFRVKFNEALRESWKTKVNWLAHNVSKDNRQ
As to the kind of experiment: Antagonist activity at PI3Kdelta (unknown origin) assessed as inhibition rate at 20 nM using PIP2 as substrate in presence of ATP incubated for 30 to 60 mins by ADP-glo based luminescence assay relative to control. The following applies: time 30-60 min. For orientation: In ADP-Glo the light output rises with the ADP produced.

Data set [2] has as its target Phosphatidylinositol 4,5-bisphosphate 3-kinase catalytic subunit gamma isoform (Homo sapiens, UniProt P48736). Nature of the data set: Antagonist activity at PI3Kgamma (unknown origin) assessed as inhibition rate at 20 nM using PIP2 as substrate in presence of ATP incubated for 30 to 60 mins by ADP-glo based luminescence assay relative to control. The settings on record: time 30-60 min.

Data set [3] concerns Jurkat. Nature of the data set: Cytotoxicity against human Jurkat cells assessed as reduction in cell viability incubated for 24 hrs by CCK-8 assay. It counts as functional, cell-based. A general note: Tetrazolium assays rely on reduction of a dye to a coloured formazan, in cell work by metabolically active cells.
Data set [4] concerns RAW264.7. Nature of the data set: Cytotoxicity against mouse RAW264.7 cells assessed as reduction in cell viability incubated for 24 hrs by CCK-8 assay. It counts as functional, cell-based. The following applies: RAW264.7, 24 h.
Data set [5] concerns THP-1. As to the kind of experiment: Cytotoxicity against human THP-1 cells assessed as reduction in cell viability incubated for 24 hrs by CCK-8 assay. It counts as functional, cell-based. The settings on record: THP-1, 24 h.
For data set [6], the system named is MDA-MB-231. Nature of the data set: Cytotoxicity against human MDA-MB-231 cells assessed as reduction in cell viability incubated for 24 hrs by CCK-8 assay. The class given is functional, cell-based. The following applies: MDA-MB-231, 24 h.
Data set [7] concerns 4T1. As to the kind of experiment: Cytotoxicity against mouse 4T1 cells assessed as reduction in cell viability incubated for 24 hrs by CCK-8 assay. The following applies: 4T1, 24 h. It counts as functional, cell-based.
The test system of data set [8] is T47D. Nature of the data set: Cytotoxicity against human T47D cells assessed as reduction in cell viability incubated for 24 hrs by CCK-8 assay. It counts as functional, cell-based.
Data set [9] deals with A549. Nature of the data set: Cytotoxicity against human A549 cells assessed as reduction in cell viability incubated for 24 hrs by CCK-8 assay. It counts as functional, cell-based. The following applies: A549, 24 h.
The subject of data set [10] is HepG2. As to the kind of experiment: Cytotoxicity against human HepG2 cells assessed as reduction in cell viability incubated for 24 hrs by CCK-8 assay. The class given is functional, cell-based. The settings on record: HepG2, 24 h.
Data set [11] has as its system B16-F10. As to the kind of experiment: Cytotoxicity against mouse B16-F10 cells assessed as reduction in cell viability incubated for 24 hrs by CCK-8 assay. The class given is functional, cell-based. The following applies: B16-F10, 24 h.
Data set [12] has as its system MCF7. As to the kind of experiment: Cytotoxicity against human MCF7 cells assessed as reduction in cell viability incubated for 24 hrs by CCK-8 assay. The class given is functional, cell-based. The settings on record: MCF7, 24 h.
Data set [13] concerns Huh-7. As to the kind of experiment: Cytotoxicity against human Huh-7 cells assessed as reduction in cell viability incubated for 24 hrs by CCK-8 assay. The following applies: Huh-7, 24 h. It counts as functional, cell-based.
Data set [14] can be described thus: Cytotoxicity against mouse L929 cells assessed as reduction in cell viability incubated for 24 hrs by CCK-8 assay. It counts as toxicity, cell-based.

Sequence of Phosphatidylinositol 4,5-bisphosphate 3-kinase catalytic subunit gamma isoform (P48736 whole entry, looked up, canonical isoform): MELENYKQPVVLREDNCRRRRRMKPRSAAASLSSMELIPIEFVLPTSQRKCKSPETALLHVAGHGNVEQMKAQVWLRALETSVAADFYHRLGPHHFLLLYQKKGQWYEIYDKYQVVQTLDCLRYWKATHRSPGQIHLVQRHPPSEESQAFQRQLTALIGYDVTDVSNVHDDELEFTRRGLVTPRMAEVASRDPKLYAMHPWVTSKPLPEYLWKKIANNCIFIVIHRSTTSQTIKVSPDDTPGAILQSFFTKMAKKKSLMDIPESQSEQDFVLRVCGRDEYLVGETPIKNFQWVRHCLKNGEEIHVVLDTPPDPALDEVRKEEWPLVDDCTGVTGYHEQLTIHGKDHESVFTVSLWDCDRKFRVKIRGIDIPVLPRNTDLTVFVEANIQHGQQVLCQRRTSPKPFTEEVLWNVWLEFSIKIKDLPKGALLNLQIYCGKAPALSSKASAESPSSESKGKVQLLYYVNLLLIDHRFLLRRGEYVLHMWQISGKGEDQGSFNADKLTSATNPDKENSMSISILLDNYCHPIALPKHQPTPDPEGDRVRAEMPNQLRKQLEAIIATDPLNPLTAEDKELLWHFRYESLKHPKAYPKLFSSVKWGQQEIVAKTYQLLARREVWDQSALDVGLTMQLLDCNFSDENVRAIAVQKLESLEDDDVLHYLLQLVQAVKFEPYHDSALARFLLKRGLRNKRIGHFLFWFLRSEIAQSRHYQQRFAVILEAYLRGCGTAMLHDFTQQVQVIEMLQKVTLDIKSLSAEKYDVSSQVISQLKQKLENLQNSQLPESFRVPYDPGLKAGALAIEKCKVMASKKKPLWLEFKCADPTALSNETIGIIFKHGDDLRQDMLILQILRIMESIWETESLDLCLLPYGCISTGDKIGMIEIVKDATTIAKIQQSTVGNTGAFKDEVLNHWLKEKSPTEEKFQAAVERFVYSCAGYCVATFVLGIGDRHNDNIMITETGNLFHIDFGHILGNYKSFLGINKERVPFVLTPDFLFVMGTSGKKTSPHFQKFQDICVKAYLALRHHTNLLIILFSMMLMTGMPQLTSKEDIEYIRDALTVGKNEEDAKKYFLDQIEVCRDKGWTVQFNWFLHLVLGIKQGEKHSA

The inhibition is the drop in the measured response relative to a control, in per cent. As to `CC(NC(=O)c1c(N)nn2cccnc12)c1cc2cccc(C#Cc3ccccc3)c2c(=O)n1-c1ccccc1` (stereo not drawn), the inhibition came out at 25% in data set [1] and 27% in data set [2].
For `CC(Nc1ncnc2[nH]cnc12)c1cc2cccc(C#Cc3ccccc3)c2c(=O)n1-c1ccccc1` (stereo not drawn), the inhibition was determined as 23% in data set [1] and 51% in [2] (filed as antagonist).
By IC50 is commonly meant the concentration that gives 50% inhibition. With `C[C@H](Nc1ncnc2nc[nH]c12)c1cc2cccc(Cl)c2c(=O)n1-c1ccccc1` [DUVELISIB], the inhibition was found to be 66.7% in data set [1] (filed as antagonist) and 37% in data set [2]. Moreover, the IC50 in data set [3] is 3.17 µM; in [4], 13.2 µM; in data set [5], 14.9 µM; in data set [6], 9.76 µM; in data set [7] it was 22.9 µM; in data set [8], more than 100 µM. Besides, the IC50 is more than 100 µM in data set [9]; more than 100 µM in data set [10]; more than 100 µM in data set [11]; more than 100 µM in [12]; 6.57 µM in data set [13].
As for `COCC#Cc1cccc2cc(C(C)Nc3ncnc4[nH]cnc34)n(-c3ccccc3)c(=O)c12` (stereo not drawn), the inhibition in data set [1] is 26%; in data set [2] (filed as antagonist), 41%.
As to `CCCCC#Cc1cccc2cc(C(C)Nc3ncnc4[nH]cnc34)n(-c3ccccc3)c(=O)c12` (stereo not drawn), the inhibition was 21% in data set [1] and 33% in data set [2].
For `CC(NC(=O)c1cncc(N2CCOCC2)n1)c1cc2cccc(Cl)c2c(=O)n1-c1ccccc1` (stereo not drawn), in that order: 14% and 13%.
The corresponding values for `COCC#Cc1cccc2cc(C(C)NC(=O)c3c(N)nn4cccnc34)n(-c3ccccc3)c(=O)c12` (stereo not drawn) are 27% and 35%.
The corresponding values for `CC(NC(=O)c1c(N)nn2cccnc12)c1cc2cccc(C#Cc3ccc(C(F)(F)F)cc3)c2c(=O)n1-c1ccccc1` (stereo not drawn) are 17% and 37%.
Turning to `CC(Nc1ncnc2c1ncn2C)c1cc2cccc(Cl)c2c(=O)n1-c1ccccc1` (stereo not drawn), the inhibition in [1] worked out at 28%; in data set [2], 35%.
In the case of `CC(NC(=O)c1cncc2ccccc12)c1cc2cccc(Cl)c2c(=O)n1-c1ccccc1` (stereo not drawn), the inhibition in data set [1] was determined as 3%; in data set [2], 2%.
As to `CC(NC(=O)c1c(N)nn2cccnc12)c1cc2cccc(C#Cc3ccc(N(C)C)cc3)c2c(=O)n1-c1ccccc1` (stereo not drawn), the results for the inhibition in data set [1] and in data set [2] were 18% and 28%, respectively.
For `C[C@H](Nc1ncnc2[nH]cnc12)c1cc2cccc(Cl)c2c(=O)n1-c1ccccc1` [DUVELISIB], the IC50 at 24 h in data set [14] is more than 100 µM.
On to `COc1ccc(C#Cc2cccc3cc(C(C)NC(=O)c4c(N)nn5cccnc45)n(-c4ccccc4)c(=O)c23)cc1` (stereo not drawn), for which the inhibition in data set [1] amounted to 19%; in [2] it was 31%.
For `CC(NC(=O)c1cnn2cccnc12)c1cc2cccc(Cl)c2c(=O)n1-c1ccccc1` (stereo not drawn), in that order: 13% and 36%.
Consider `CC(Nc1ncnc2[nH]cnc12)c1cc2cccc(C#CC3CC3)c2c(=O)n1-c1ccccc1` (stereo not drawn), for which the inhibition worked out at 44% in data set [1] (filed as antagonist) and 43% in [2] (filed as antagonist).
On to `CCCc1ccc(C#Cc2cccc3cc(C(C)Nc4ncnc5[nH]cnc45)n(-c4ccccc4)c(=O)c23)cc1` (stereo not drawn), for which the figures for the inhibition in data set [1] and in data set [2] were 8% and 13%, respectively.
On to `CCCc1ccc(C#Cc2cccc3cc(C(C)NC(=O)c4c(N)nn5cccnc45)n(-c4ccccc4)c(=O)c23)cc1` (stereo not drawn), for which the inhibition was determined as 27% in data set [1] and 22% in data set [2].
For `CC(NC(=O)c1cnn2cccnc12)c1cc2cccc(C#Cc3ccccc3)c2c(=O)n1-c1ccccc1` (stereo not drawn), in that order: 22% and 24%.
Regarding `CC(NC(=O)c1cccc2c1OCCO2)c1cc2cccc(Cl)c2c(=O)n1-c1ccccc1` (stereo not drawn), the inhibition came to 32% in data set [1] and 9% in data set [2].
As for `CC(Nc1ncnc2[nH]cnc12)c1cc2cccc(C#Cc3ccc(C(F)(F)F)cc3)c2c(=O)n1-c1ccccc1` (stereo not drawn), the inhibition in [1] was determined as 14%; in data set [2] (filed as antagonist), 44%.
For `CC(Nc1ncnc2[nH]cnc12)c1cc2cccc(C#Cc3ccc(N(C)C)cc3)c2c(=O)n1-c1ccccc1` (stereo not drawn), in that order: 14% and 46%.
`CC(NC(=O)c1c(N)nn2cccnc12)c1cc2cccc(C#CC3CC3)c2c(=O)n1-c1ccccc1` (stereo not drawn): the inhibition in data set [1] came to 17%; in data set [2] it was 33%.
The corresponding values for `CCCC#Cc1cccc2cc(C(C)NC(=O)c3c(N)nn4cccnc34)n(-c3ccccc3)c(=O)c12` (stereo not drawn) are 29% and 24%.
Consider `CC(NC(=O)c1cnn2cccnc12)c1cc2cccc(C#Cc3ccc(C(F)(F)F)cc3)c2c(=O)n1-c1ccccc1` (stereo not drawn), for which the inhibition in [1] (filed as antagonist) was 40%; in data set [2], 27%.
Take `CC(NC(=O)c1cnn2cccnc12)c1cc2cccc(C#Cc3ccc(N(C)C)cc3)c2c(=O)n1-c1ccccc1` (stereo not drawn): the inhibition is 28% in [1] and 22% in [2].
For `COc1ccc(C#Cc2cccc3cc(C(C)NC(=O)c4cnn5cccnc45)n(-c4ccccc4)c(=O)c23)cc1` (stereo not drawn), the inhibition in data set [1] and in data set [2] was 25% throughout.
With `CC(NC(=O)c1ccc2occc2c1)c1cc2cccc(Cl)c2c(=O)n1-c1ccccc1` (stereo not drawn), the inhibition came out at 8% in data set [1] and 11% in data set [2].
The corresponding values for `CC(NC(=O)c1ccncc1N)c1cc2cccc(Cl)c2c(=O)n1-c1ccccc1` (stereo not drawn) are 24% and 33%.
For `CC(NC(=O)c1c(N)nn2cccnc12)c1cc2cccc(C#CCN)c2c(=O)n1-c1ccccc1` (stereo not drawn), in that order: 25% and 38%.

The record behind these values is ChEMBL document CHEMBL5252648, “Design, synthesis and bioactivity evaluation of a series of quinazolinone derivatives as potent PI3Kγ antagonist” (Bioorg Med Chem, 2023).
